Assay results reported in article PMC8333425, “Discovery of a dual Ras and ARF6 inhibitor from a GPCR endocytosis screen” (Nature Communications, 2021).

Key:
Experiment in all cases: KINOMEscan kinase binding assay
[1] = target: T1, 384 kinases from the human genome (Homo sapiens, UniProt O14920); conditions: kinase IKK-beta (Entrez IKBKB)
T1 construct: purchased Eurofin/DiscoverX
Outline: (§1)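 A panel of 384 human kinases was profiled by KINOMEscan binding in the presence of 10 µM compound. Kinase–ligand binding was given as percent of DMSO control, averaged from duplicates in a single run, with an S(10) selectivity score.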

[2] = target: T2, 384 kinases from the human genome (Homo sapiens, UniProt Q09013); conditions: kinase DMPK (Entrez DMPK)
T2 construct: purchased Eurofin/DiscoverX
Outline: as §1

[3] = target: T3, 384 kinases from the human genome (Homo sapiens, UniProt P04626); conditions: kinase ERBB2 (Entrez ERBB2)
T3 construct: purchased Eurofin/DiscoverX
Outline: as §1

[4] = target: T4, 384 kinases from the human genome (Homo sapiens, UniProt Q16566); conditions: kinase CAMK4 (Entrez CAMK4)
T4 construct: purchased Eurofin/DiscoverX
Outline: as §1

[5] = target: T5, 384 kinases from the human genome (Homo sapiens, UniProt P48736); conditions: kinase PIK3CG (Entrez PIK3CG)
T5 construct: purchased Eurofin/DiscoverX
T5 sequence (P48736 whole entry): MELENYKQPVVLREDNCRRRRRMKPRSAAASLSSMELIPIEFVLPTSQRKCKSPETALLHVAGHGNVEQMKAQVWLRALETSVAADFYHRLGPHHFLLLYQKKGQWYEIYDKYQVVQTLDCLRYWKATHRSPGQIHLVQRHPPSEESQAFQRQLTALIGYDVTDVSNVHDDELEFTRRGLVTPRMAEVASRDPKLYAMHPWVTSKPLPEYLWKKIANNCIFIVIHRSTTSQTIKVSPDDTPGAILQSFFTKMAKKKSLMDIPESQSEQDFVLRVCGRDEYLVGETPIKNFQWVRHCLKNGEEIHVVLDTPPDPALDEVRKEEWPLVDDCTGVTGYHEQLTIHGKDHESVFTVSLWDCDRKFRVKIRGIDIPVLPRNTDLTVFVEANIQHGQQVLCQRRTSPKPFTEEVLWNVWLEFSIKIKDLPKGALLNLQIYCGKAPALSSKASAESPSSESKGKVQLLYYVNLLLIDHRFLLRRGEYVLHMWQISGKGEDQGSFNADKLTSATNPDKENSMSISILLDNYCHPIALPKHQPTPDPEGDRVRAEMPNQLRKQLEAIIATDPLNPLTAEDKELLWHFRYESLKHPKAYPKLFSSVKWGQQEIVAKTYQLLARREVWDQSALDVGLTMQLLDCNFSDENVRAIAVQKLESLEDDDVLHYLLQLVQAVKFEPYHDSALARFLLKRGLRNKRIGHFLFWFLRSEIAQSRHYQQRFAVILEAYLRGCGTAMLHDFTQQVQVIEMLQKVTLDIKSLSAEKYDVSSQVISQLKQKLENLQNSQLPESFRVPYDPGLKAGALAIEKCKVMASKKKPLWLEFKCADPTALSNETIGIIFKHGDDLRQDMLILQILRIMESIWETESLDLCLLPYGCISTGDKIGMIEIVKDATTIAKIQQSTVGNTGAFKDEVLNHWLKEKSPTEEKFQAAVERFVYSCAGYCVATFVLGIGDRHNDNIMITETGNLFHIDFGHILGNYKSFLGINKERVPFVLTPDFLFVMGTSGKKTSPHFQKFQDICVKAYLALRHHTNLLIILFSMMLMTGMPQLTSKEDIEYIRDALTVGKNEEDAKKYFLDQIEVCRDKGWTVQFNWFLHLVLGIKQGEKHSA
Outline: as §1

[6] = target: T6, 384 kinases from the human genome (Homo sapiens, UniProt P08922); conditions: kinase ROS1 (Entrez ROS1)
T6 construct: purchased Eurofin/DiscoverX
Outline: as §1

[7] = target: T7, 384 kinases from the human genome (Homo sapiens, UniProt O43283); conditions: kinase LZK (Entrez MAP3K13)
T7 construct: purchased Eurofin/DiscoverX
Outline: as §1

[8] = target: T8, 384 kinases from the human genome (Homo sapiens, UniProt O14965); conditions: kinase AURKA (Entrez AURKA)
T8 construct: purchased Eurofin/DiscoverX
Outline: as §1

[9] = target: T9, 384 kinases from the human genome (Homo sapiens, UniProt Q9BQI3); conditions: kinase EIF2AK1 (Entrez EIF2AK1)
T9 construct: purchased Eurofin/DiscoverX
T9 sequence (Q9BQI3 whole entry): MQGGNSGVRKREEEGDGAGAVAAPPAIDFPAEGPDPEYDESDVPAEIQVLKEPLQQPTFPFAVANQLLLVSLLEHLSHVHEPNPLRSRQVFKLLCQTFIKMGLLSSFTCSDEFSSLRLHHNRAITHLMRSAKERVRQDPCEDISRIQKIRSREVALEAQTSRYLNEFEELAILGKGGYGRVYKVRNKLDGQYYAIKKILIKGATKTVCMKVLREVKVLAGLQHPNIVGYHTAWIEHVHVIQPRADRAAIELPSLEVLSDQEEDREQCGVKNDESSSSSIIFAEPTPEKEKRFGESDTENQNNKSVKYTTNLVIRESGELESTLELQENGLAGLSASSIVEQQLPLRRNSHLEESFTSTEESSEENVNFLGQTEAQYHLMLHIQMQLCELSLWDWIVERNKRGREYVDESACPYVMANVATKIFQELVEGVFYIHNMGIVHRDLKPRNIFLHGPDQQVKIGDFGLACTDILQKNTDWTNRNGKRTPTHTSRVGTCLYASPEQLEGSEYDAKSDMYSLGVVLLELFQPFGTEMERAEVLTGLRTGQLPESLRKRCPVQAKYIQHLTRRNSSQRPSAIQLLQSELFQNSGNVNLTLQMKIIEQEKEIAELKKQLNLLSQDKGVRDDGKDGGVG
Outline: as §1

[10] = target: T10, 384 kinases from the human genome (Homo sapiens, UniProt P29323); conditions: kinase EPHB2 (Entrez EPHB2)
T10 construct: purchased Eurofin/DiscoverX
Outline: as §1

[11] = target: T11, 384 kinases from the human genome (Homo sapiens, UniProt Q96Q40); conditions: kinase PFTAIRE2 (Entrez CDK15)
T11 construct: purchased Eurofin/DiscoverX
Outline: as §1

[12] = target: T12, 384 kinases from the human genome (Homo sapiens, UniProt Q9Y243); conditions: kinase AKT3 (Entrez AKT3)
T12 construct: purchased Eurofin/DiscoverX
T12 sequence (Q9Y243 whole entry): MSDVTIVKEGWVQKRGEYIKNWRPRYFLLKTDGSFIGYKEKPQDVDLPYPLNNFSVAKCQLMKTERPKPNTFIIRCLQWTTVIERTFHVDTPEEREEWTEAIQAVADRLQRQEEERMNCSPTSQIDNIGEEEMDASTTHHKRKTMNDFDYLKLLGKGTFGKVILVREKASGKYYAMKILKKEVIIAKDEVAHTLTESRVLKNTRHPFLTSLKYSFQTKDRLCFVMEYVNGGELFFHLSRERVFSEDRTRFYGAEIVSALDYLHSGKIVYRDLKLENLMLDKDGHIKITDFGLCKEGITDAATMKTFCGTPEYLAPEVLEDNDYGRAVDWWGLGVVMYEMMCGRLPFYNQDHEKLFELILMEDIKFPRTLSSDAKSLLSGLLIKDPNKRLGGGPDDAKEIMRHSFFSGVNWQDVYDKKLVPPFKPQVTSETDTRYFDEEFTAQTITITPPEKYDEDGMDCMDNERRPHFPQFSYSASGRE
Outline: as §1

[13] = target: T13, 384 kinases from the human genome (Homo sapiens, UniProt P15735); conditions: kinase PHKG2 (Entrez PHKG2)
T13 construct: purchased Eurofin/DiscoverX
Outline: as §1

[14] = target: T14, 384 kinases from the human genome (Homo sapiens, UniProt P37173); conditions: kinase TGFBR2 (Entrez TGFBR2)
T14 construct: purchased Eurofin/DiscoverX
Outline: as §1

[15] = target: T15, 384 kinases from the human genome (Homo sapiens, UniProt Q99755); conditions: kinase PIP5K1A (Entrez PIP5K1A)
T15 construct: purchased Eurofin/DiscoverX
Outline: as §1

[16] = target: T16, 384 kinases from the human genome (Homo sapiens, UniProt Q9Y6E0); conditions: kinase MST3 (Entrez STK24)
T16 construct: purchased Eurofin/DiscoverX
Outline: as §1

[17] = target: T17, 384 kinases from the human genome (Homo sapiens, UniProt Q13546); conditions: kinase RIPK1 (Entrez RIPK1)
T17 construct: purchased Eurofin/DiscoverX
Outline: as §1

[18] = target: T18, 384 kinases from the human genome (Homo sapiens, UniProt Q9BRS2); conditions: kinase RIOK1 (Entrez RIOK1)
T18 construct: purchased Eurofin/DiscoverX
T18 sequence (Q9BRS2 whole entry): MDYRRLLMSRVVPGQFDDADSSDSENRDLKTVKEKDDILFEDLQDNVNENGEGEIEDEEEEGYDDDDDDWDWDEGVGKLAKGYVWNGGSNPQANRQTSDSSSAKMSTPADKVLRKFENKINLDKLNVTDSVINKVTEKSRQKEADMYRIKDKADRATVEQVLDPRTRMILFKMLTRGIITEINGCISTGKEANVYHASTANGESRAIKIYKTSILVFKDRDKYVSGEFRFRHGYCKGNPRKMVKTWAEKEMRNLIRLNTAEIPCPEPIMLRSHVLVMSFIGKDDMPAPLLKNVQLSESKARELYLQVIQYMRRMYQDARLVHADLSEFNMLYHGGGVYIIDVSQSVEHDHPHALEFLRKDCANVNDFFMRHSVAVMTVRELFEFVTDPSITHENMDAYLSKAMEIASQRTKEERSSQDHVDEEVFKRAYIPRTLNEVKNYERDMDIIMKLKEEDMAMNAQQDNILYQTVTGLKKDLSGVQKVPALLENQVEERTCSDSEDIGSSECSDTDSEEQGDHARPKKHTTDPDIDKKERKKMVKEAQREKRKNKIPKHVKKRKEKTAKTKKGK
Outline: as §1

[19] = target: T19, 384 kinases from the human genome (Homo sapiens, UniProt Q96RR4); conditions: kinase CAMKK2 (Entrez CAMKK2)
T19 construct: purchased Eurofin/DiscoverX
Outline: as §1

[20] = target: T20, 384 kinases from the human genome (Homo sapiens, UniProt O43318); conditions: kinase TAK1 (Entrez MAP3K7)
T20 construct: purchased Eurofin/DiscoverX
T20 sequence (O43318 whole entry): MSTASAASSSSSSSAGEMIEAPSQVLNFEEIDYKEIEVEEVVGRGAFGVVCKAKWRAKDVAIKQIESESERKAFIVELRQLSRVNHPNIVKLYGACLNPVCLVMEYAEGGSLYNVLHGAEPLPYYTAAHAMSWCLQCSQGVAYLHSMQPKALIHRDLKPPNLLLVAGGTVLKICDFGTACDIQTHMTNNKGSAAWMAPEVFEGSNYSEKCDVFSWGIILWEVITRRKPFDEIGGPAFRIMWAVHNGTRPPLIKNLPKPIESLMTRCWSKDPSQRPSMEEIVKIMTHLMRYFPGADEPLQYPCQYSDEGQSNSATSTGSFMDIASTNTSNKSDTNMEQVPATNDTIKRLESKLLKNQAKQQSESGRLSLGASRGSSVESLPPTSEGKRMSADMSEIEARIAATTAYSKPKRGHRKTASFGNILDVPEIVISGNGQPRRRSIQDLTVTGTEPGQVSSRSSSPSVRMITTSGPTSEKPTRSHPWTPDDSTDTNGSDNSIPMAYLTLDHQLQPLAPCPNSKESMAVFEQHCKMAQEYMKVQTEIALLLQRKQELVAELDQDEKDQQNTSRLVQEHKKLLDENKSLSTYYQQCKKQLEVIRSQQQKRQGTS
Outline: as §1

[21] = target: T21, 384 kinases from the human genome (Homo sapiens, UniProt P11802)
T21 construct: purchased Eurofin/DiscoverX
T21 sequence (P11802 whole entry): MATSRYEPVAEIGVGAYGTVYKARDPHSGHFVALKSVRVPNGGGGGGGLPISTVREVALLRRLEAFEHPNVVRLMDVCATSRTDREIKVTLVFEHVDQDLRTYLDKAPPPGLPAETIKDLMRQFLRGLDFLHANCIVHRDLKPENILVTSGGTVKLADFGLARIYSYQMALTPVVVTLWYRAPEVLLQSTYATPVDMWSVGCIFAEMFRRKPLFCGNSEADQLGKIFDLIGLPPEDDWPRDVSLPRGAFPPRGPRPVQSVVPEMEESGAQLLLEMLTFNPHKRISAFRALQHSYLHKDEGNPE
Outline: as §1

[22] = target: T22, 384 kinases from the human genome (Homo sapiens, UniProt P07332); conditions: kinase FES (Entrez FES)
T22 construct: purchased Eurofin/DiscoverX
Outline: as §1

[23] = target: T23, 384 kinases from the human genome (Homo sapiens, UniProt P36896); conditions: kinase ACVR1B (Entrez ACVR1B)
T23 construct: purchased Eurofin/DiscoverX
T23 sequence (P36896 24-505): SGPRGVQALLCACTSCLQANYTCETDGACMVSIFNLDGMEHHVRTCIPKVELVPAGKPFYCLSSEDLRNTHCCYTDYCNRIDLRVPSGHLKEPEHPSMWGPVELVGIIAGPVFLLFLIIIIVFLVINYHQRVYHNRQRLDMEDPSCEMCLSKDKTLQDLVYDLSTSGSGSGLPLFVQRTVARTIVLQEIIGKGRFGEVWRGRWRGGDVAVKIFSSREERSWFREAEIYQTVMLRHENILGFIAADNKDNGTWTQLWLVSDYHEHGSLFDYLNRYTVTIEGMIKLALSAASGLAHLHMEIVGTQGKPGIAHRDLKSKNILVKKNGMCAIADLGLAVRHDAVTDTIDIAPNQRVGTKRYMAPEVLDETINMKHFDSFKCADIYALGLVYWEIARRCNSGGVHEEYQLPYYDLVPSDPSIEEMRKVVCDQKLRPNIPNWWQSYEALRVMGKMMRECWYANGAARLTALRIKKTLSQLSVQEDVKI
Outline: as §1

[24] = target: T24, 384 kinases from the human genome (Homo sapiens, UniProt P48729); conditions: kinase CSNK1A1 (Entrez CSNK1A1)
T24 construct: purchased Eurofin/DiscoverX
Outline: as §1

[25] = target: T25, 384 kinases from the human genome (Homo sapiens, UniProt Q8IVH8); conditions: kinase MAP4K3 (Entrez MAP4K3)
T25 construct: purchased Eurofin/DiscoverX
Outline: as §1

[26] = target: T26, 384 kinases from the human genome (Homo sapiens, UniProt Q13237); conditions: kinase PRKG2 (Entrez PRKG2)
T26 construct: purchased Eurofin/DiscoverX
Outline: as §1

T1 sequence (O14920 whole entry): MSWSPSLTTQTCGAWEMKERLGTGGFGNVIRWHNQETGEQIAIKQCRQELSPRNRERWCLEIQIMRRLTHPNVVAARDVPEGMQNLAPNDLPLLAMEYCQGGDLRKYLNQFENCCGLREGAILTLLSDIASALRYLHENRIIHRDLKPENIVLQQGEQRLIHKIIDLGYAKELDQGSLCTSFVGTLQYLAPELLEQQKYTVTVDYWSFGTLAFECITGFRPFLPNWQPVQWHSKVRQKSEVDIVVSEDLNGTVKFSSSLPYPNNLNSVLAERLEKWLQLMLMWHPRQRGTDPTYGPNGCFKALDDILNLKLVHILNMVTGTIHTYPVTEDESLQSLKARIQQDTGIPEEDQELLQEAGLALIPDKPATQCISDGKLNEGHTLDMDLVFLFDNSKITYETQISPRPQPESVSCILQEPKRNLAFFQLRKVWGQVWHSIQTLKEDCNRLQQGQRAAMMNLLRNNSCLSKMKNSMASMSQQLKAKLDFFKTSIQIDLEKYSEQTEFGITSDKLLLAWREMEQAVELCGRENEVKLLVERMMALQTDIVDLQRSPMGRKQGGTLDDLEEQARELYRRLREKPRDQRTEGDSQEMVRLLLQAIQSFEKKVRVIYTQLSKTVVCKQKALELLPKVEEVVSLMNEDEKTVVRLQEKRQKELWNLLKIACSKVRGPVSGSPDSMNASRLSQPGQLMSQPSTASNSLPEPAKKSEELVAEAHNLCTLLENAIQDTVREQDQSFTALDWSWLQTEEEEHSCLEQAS

CC(C)C(=O)N1CCN(c2ccc(NC(=O)c3cc4ccccc4o3)cc2Cl)CC1 [Compound 21]
Percent Control [1]: 98%
Percent Control [2]: 100%
Percent Control [3]: 75%
Percent Control [4]: 100%
Percent Control [5]: 100%
Percent Control [6]: 94%
Percent Control [7]: 100%
Percent Control [8]: 89%
Percent Control [9]: 98%
Percent Control [10]: 94%
Percent Control [11]: 100%
Percent Control [12]: 100%
Percent Control [13]: 100%
Percent Control [14]: 99%
Percent Control [15]: 100%
Percent Control [16]: 84%
Percent Control [17]: 76%
Percent Control [18]: 100%
Percent Control [19]: 100%
Percent Control [20]: 83%
Percent Control ([21]; kinase CDK4 (Entrez CDK4)): 97%
Percent Control ([21]; kinase CDK4-cyclinD1 (Entrez CDK4)): 86%
Percent Control ([21]; kinase CDK4-cyclinD3 (Entrez CDK4)): 96%
Percent Control [22]: 73%
Percent Control [23]: 85%
Percent Control [24]: 88%
Percent Control [25]: 78%
Percent Control [26]: 92%
